Tested on: huAPP/PS1 mice
Assay: elevated plus maze in aged huAPP/PS1 mice
Format: in vivo
Conditions: 200 ppm in food for three months
Method: The APPswe/PS1ΔE9 transgenic mice have been previously characterized. The line 85 mice carry two transgenes, the mouse/human chimeric APP/Swe, linked to Swedish FAD and human PS1ΔE9. At 20 months of age both male and female transgenic mice were fed a high fat diet (Harlan Tekland, Madison, WI, USA) with and without J147 (200 ppm, 10 mg/kg/day). Treatment continued for three months and was followed by behavior testing and sacrifice of mice for tissue harvesting. […] (Data not shown).
The elevated plus maze analyzes the anxiety response of mice. This test relies upon the tendency of mice to have a fear of heights and to navigate towards dark enclosed spaces and remain there. Our maze is made of gray plastic and consists of four arms (two open without walls and two enclosed by 15.25 cm high walls) 30 cm long and 5 cm wide in the shape of a plus sign. The elevated plus maze is placed close to the center of the room, and has similar levels of illumination on both open and closed arms. A video-tracking system (Noldus EthoVision) is used to automatically collect behavioral data. […] Mice were then tested in the maze for a five-minute period while the software tracked and recorded the behavior of the mice. The anxiety of mice was measured by comparing the time spent in the open arms to time spent in the closed arms. […]

## COc1cccc(/C=N/N(C(=O)C(F)(F)F)c2ccc(C)cc2C)c1 [J147, (E)-N-(2,4-dimethylphenyl)-2,2,2-trifluoro-N'-(3methoxybenzyli-dene) acetohydrazide]
  disinhibition phenotype (time in the open arm): completely rescued

Source: PMC3706879, “The neurotrophic compound J147 reverses cognitive impairment in aged Alzheimer's disease mice” (Alzheimer's Research & Therapy, 2013)
